The values below come from patent publication US20230348468A1, “1H-PYRAZOLO[4,3-d]PYRIMIDINE COMPOUNDS AS TOLL-LIKE RECEPTOR 7 (TLR7) AGONISTS” (BRISTOL-MYERS SQUIBB COMPANY, priority 2020, published 2023).

The target in assay [1] is T1, human TLR7 (Homo sapiens, UniProt Q9NYK1).
T1 construct: host or cells: HEK-Blue TLR7 cells (engineered human embryonic kidney cells)
T1 sequence (Q9NYK1 27-1049): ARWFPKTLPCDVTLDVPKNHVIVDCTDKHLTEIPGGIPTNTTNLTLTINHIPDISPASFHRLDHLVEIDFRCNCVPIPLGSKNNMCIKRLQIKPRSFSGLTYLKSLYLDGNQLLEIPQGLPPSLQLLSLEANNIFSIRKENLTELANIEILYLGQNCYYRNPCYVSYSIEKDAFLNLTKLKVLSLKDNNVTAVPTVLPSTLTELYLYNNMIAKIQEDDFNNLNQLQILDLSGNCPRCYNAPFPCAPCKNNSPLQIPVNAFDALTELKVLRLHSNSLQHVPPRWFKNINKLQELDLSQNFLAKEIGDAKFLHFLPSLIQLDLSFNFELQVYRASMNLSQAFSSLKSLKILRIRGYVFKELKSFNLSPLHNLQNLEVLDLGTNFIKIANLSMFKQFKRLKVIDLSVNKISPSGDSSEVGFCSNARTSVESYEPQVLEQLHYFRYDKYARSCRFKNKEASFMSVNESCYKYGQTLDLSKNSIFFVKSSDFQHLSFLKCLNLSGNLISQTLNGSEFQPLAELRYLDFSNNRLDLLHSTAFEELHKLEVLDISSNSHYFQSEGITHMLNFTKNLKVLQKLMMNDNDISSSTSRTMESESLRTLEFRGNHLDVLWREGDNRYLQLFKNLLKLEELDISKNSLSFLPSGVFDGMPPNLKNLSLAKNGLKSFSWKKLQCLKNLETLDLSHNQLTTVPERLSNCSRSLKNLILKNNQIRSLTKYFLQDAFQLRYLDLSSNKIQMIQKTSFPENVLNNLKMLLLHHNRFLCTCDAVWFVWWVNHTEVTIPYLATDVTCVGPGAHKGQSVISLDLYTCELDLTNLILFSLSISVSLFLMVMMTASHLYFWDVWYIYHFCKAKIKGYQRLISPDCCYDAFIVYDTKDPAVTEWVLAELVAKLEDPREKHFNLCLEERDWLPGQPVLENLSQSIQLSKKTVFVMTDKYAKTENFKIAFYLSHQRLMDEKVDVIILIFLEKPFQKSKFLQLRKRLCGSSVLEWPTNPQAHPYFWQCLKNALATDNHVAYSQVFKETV
Put plainly: Human TLR7 agonist activity (reporter) assay. Format: cell-based. The settings on record: HEK-Blue TLR7 cells, SEAP reporter, 18 h treatment; average where assay performed multiple times; read-out: hTLR7 Agonism EC50. As for the experimental part:
This procedure describes a method for assaying human TLR7 (hTLR7) agonist activity of the compounds disclosed in this specification.
HEK-Blue™ TLR7 cells were added to each well of a 384-well tissue-culture plate (15,000 cells per well) and incubated 16-18 h at 37° C., 5% CO2. Compounds (100 nl) were dispensed into wells containing the HEK-Blue™ TLR cells and the treated cells were incubated at 37° C., 5% CO2. After 18 h treatment ten microliters of freshly-prepared Quanti-Blue” reagent (Invivogen) was added to each well, incubated for 30 min (37° C., 5% CO2) and SEAP levels measured using an Envision plate reader (OD=620 nm). The half maximal effective concentration values (EC50; compound concentration which induced a response halfway between the assay baseline and maximum) were calculated.

Assay [2] relates to CD69. Put plainly: Induction of CD69 in human whole blood. Format: cell-based. The settings on record: heparinized human whole blood, 17 hrs at 37° C.; 100% set to 1 uM resiquimod; average where assay performed multiple times; read-out: hWB CD69 EC50. As for the experimental part: The induction of Type I interferon (IFN) MX-1 genes and the B-cell activation marker CD69 are downstream events that occur upon activation of the TLR7 pathway. The following is a human whole blood assay that measures their induction in response to a TLR7 agonist.
Heparinized human whole blood was harvested from human subjects and treated with test TLR7 agonist compounds at 1 mM. The blood was diluted with RPMI 1640 media and Echo was used to predot 10 nL per well giving a final concentration of 1 uM (10 nL in 10 uL of blood). After mixing on a shaker for 30 sec, the plates were covered and placed in a 37° C. chamber for o/n=17 hrs. Fixing/lysis buffer was prepared (5×→1× in H2O, warm at 37° C.; Cat #BD 558049) and kept the perm buffer (on ice) for later use.
For surface markers staining (CD69): prepared surface Abs: 0.045 ul hCD14-FITC (ThermoFisher Cat #MHCD1401)+0.6 ul hCD19-ef450 (ThermoFisher Cat #48-0198-42)+1.5 ul hCD69-PE (cat #BD555531)+0.855 ul FACS buffer. Added 3 ul/well, spin 1000 rpm for 1 min and mixed on shaker for 30 sec, put on ice for 30 mins. Stop stimulation after 30 min with 70 uL of prewarmed 1× fix/lysis buffer and use Feliex mate to resuspend (15 times, change tips for each plate) and incubate at 37 C for 10 min.
Centrifuge at 2000 rpm for 5 min aspirate with HCS plate washer, mix on shaker for 30 sec and then wash with 70 uL in dPBS and pelleted 2×s (2000 rpm for 5 min) and 50 ul wash in FACS buffer pelleted 1×s (2000 rpm for 5 min). Mix on shaker for 30 sec. For Intracellular markers staining (MX-1): Add 50 ul of BD Perm buffer III and mix on shaker for 30 sec. Incubate on ice for 30 min (in the dark). Wash with 50 uL of FACS buffer 2× (spin @2300 rpm×5 min after perm) followed by mixing on shaker for 30 sec. Resuspended in 20 ul of FACS buffer containing MX1 antibody ( )(4812)-Alexa 647: Novus Biologicals #NBP2-43704AF647) 20 ul FACS bf+0.8 ul hIgG+0.04 ul MX-1. Spin 1000 rpm for 1 min, mix on shaker for 30 se and the samples were incubated at RT in the dark for 45 min followed by washing 2×FACS buffer (spin @2300 rpm×5 min after perm). Resuspend 20 ul (35 uL total per well) of FACS buffer and cover with foil and place in 4° C. to read the following day. Plates were read on iQuePlus. The results were loaded into toolset and […] curves are generated in curve master. The y-axis 100% is set to 1 uM of resiquimod.

For `CCC[C@@H](CCO)Nc1nc(N)nc2cnn(Cc3cnc(C(C)(C)N)cc3OC)c12` [Compound 120, (3S)-3-[(5-amino-1-{[6-(2-aminopropan-2-yl)-4-methoxypyridin-3-yl]methyl}-1H-pyrazolo[4,3-d]pyrimidin-7-yl)amino]hexan-1-ol], the EC50 (commonly the midpoint of the concentration-response curve) in assay [1] stood at 0.0483 µM.
As to `CCCCNc1nc(N)nc2cnn(Cc3ccc(C(C)(O)C(F)(F)F)cc3OC)c12` (stereo not shown) [Compound 115, 2-(4-{[5-amino-7-(butylamino)-1H-pyrazolo[4,3-d]pyrimidin-1-yl]methyl}-3-methoxyphenyl)-1,1,1-trifluoropropan-2-ol], the concentration for a half-maximal effect (EC50) in assay [2] was 0.34 µM; in assay [1], 0.146 µM.
Consider `CCCCNc1nc(N)nc2cnn(Cc3ccc(C(C)(C)N)cc3OC)c12` [Compound 101, 1-(4-(2-Aminopropan-2-yl)-2-methoxybenzyl)-N7-butyl-1H-pyrazolo[4,3-d]pyrimidine-5,7-diamine], for which the concentration giving a half-maximal response (EC50) in assay [2] came out at 0.0116 µM; in assay [1], 0.0766 µM.
For `CCCCNc1nc(N)nc2cnn(Cc3ccc(C(O)(CC)CC)cc3OC)c12` [Compound 111, 3-(4-{[5-amino-7-(butylamino)-1H-pyrazolo[4,3-d]pyrimidin-1-yl]methyl}-3-methoxyphenyl)pentan-3-ol], in assay [1], the EC50 worked out at 0.0459 µM.
With `CC[C@@H](CCO)Nc1nc(N)nc2cnn(Cc3ccc(C(C)(C)N)cc3OC)c12` [Compound 106, (S)-3-((5-amino-1-(4-(2-aminopropan-2-yl)-2-methoxybenzyl)-1H-pyrazolo[4,3-d]pyrimidin-7-yl)amino)pentan-1-ol], the 50% effective concentration (EC50) in assay [2] is 0.0037 µM; in assay [1], 0.211 µM.
Regarding `CCCCNc1nc(N)nc2cnn(Cc3ccc(C4(O)CCC4)cc3OC)c12` [Compound 117, 1-(4-{[5-amino-7-(butylamino)-1H-pyrazolo[4,3-d]pyrimidin-1-yl]methyl}-3-methoxyphenyl)cyclobutan-1-ol], the half-maximal effective concentration (EC50) in assay [2] is 0.803 µM; in assay [1], 0.0259 µM.
With `CCCCNc1nc(N)nc2cnn(Cc3cc(C(C)(C)N)ccc3OC)c12` [Compound 105, 1-(5-(2-Aminopropan-2-yl)-2-methoxybenzyl)-N7-butyl-1H-pyrazolo[4,3-d]pyrimidine-5,7-diamine], the EC50 in assay [2] amounted to 0.0506 µM.
With `CCCCNc1nc(N)nc2cnn(Cc3ccc(C(C)(O)CC)cc3OC)c12` (stereo not shown) [Compound 112, 2-(4-{[5-amino-7-(butylamino)-1H-pyrazolo[4,3-d]pyrimidin-1-yl]methyl}-3-methoxyphenyl)butan-2-ol], the 50% effective concentration (EC50) in assay [1] was found to be 0.0959 µM.
On to `CCCCNc1nc(N)nc2cnn(Cc3ccc(C(C)(C)O)cc3OC)c12` [Compound 110, 2-(4-{[5-amino-7-(butylamino)-1H-pyrazolo[4,3-d]pyrimidin-1-yl]methyl}-3-methoxyphenyl)propan-2-ol], for which the EC50 in assay [1] was 0.0711 µM.
Regarding `CCCCNc1nc(N)nc2cnn(Cc3ccc(C(C)(O)CCC)cc3OC)c12` (stereo not shown) [Compound 113, 2-(4-{[5-amino-7-(butylamino)-1H-pyrazolo[4,3-d]pyrimidin-1-yl]methyl}-3-methoxyphenyl)pentan-2-ol], the EC50 in assay [1] worked out at 0.256 µM.
For the molecule `CCC[C@@H](CCO)Nc1nc(N)nc2cnn(Cc3ccc(C(C)(C)O)cc3OC)c12` [Compound 109, (3S)-3-[(5-amino-1-{[4-(2-hydroxypropan-2-yl)-2-methoxyphenyl]methyl}-1H-pyrazolo[4,3-d]pyrimidin-7-yl)amino]hexan-1-ol], the concentration giving a half-maximal response (EC50) in assay [2] is 0.0035 µM; in assay [1], 0.0046 µM.
In the case of `CCCCNc1nc(N)nc2cnn(Cc3ccc(C4(O)CNC4)cc3OC)c12` [Compound 116, 3-(4-{[5-amino-7-(butylamino)-1H-pyrazolo[4,3-d]pyrimidin-1-yl]methyl}-3-methoxyphenyl)-azetidin-3-ol], in assay [1], the EC50 turned out to be 0.786 µM.
In the case of `COc1cc(C(C)(C)N)ccc1Cn1ncc2nc(N)nc(NCc3cc(C)on3)c21` [Compound 103, 1-(4-(2-Aminopropan-2-yl)-2-methoxybenzyl)-N7-((5-methylisoxazol-3-yl)methyl)-1H-pyrazolo[4,3-d]pyrimidine-5,7-diamine], the EC50 in assay [1] was 0.202 µM.
`CCCCNc1nc(N)nc2cnn(Cc3ccc(C4(O)CC4)cc3OC)c12` [Compound 118, 1-(4-{[5-amino-7-(butylamino)-1H-pyrazolo[4,3-d]pyrimidin-1-yl]methyl}-3-methoxyphenyl)cyclopropan-1-ol]: the EC50 in assay [2] was found to be 0.276 µM; in assay [1] it was 0.257 µM.
Consider `CCC[C@@H](CCO)Nc1nc(N)nc2cnn(Cc3cc(C(C)(C)N)ccc3OC)c12` [Compound 104, (S)-3-((5-Amino-1-(5-(2-aminopropan-2-yl)-2-methoxybenzyl)-1H-pyrazolo[4,3-d]pyrimidin-7-yl)amino)hexan-1-ol], for which the figures for the concentration for a half-maximal effect (EC50) in assay [2] and in assay [1] were 0.0127 µM and 0.0345 µM, respectively.
On to `CCC[C@@H](CCO)Nc1nc(N)nc2cnn(Cc3ccc(C4(N)COC4)cc3OC)c12` [Compound 108, (S)-3-((5-amino-1-(4-(3-aminooxetan-3-yl)-2-methoxybenzyl)-1H-pyrazolo[4,3-d]pyrimidin-7-yl)amino)hexan-1-ol], for which the EC50 in assay [2] came to 0.0033 µM; in assay [1], 0.0434 µM.
In the same order, the values of `CCCCNc1nc(N)nc2cnn(Cc3ccc(C4(N)COC4)cc3OC)c12` [Compound 107, 1-(4-(3-aminooxetan-3-yl)-2-methoxybenzyl)-N7-butyl-1H-pyrazolo-[4,3-d]pyrimidine-5,7-diamine] are 0.0426 µM and 0.247 µM.
For the molecule `CCCCNc1nc(N)nc2cnn(Cc3ccc(C4(O)COC4)cc3OC)c12` [Compound 114, 3-(4-{[5-amino-7-(butylamino)-1H-pyrazolo[4,3-d]pyrimidin-1-yl]methyl}-3-methoxyphenyl)oxetan-3-ol], in assay [1], the concentration for a half-maximal effect (EC50) was found to be 0.41 µM.
`CCC[C@@H](CCO)Nc1nc(N)nc2cnn(Cc3nc(C(C)(C)N)ccc3OC)c12` [Compound 119, (3S)-3-[(5-amino-1-{[6-(2-aminopropan-2-yl)-3-methoxypyridin-2-yl]methyl}-1H-pyrazolo[4,3-d]pyrimidin-7-yl)amino]hexan-1-ol]: the EC50 in assay [1] turned out to be 4.95 µM.
